Test results published in ChEMBL document CHEMBL1156528, “Acetyl-lysine analog peptides as mechanistic probes of protein deacetylases” (J Biol Chem, 2007).

molecular target: NAD-dependent protein deacetylase HST2 (Saccharomyces cerevisiae S288c, UniProt P53686); test: Binding affinity to Saccharomyces cerevisiae Hst2 by isothermal titration calorimetry
Sequence (P53686 whole entry): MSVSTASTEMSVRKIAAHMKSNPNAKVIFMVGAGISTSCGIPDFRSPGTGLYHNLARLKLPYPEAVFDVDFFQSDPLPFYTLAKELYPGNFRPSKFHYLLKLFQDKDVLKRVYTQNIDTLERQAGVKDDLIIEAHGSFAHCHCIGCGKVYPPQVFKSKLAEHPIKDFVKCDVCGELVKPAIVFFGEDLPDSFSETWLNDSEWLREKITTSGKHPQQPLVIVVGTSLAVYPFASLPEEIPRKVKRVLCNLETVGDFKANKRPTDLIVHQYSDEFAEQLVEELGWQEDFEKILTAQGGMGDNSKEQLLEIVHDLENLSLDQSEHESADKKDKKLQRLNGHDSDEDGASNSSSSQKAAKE

| SMILES | Kd [µM] |
| --- | --- |
| C[C@H](NC(=O)[C@H](CCCCNC(=N)N)NC(=O)CNC(=O)CNC(=O)[C@@H](NC(=O)[C@H](CO)NC(=O)[C@@H](N)CCCCN)[C@@H](C)O)C(=O)N1CCC[C@H]1C(=O)N[C@@H](CCCNC(=N)N)C(=O)N[C@@H](CCCCN)C(=O)N[C@@H](CCC(N)=O)C(=O)O | 3.3 |
| C[C@H](NC(=O)[C@H](CCCCNC(N)=O)NC(=O)CNC(=O)CNC(=O)[C@@H](NC(=O)[C@H](CO)NC(=O)[C@@H](N)CCCCN)[C@@H](C)O)C(=O)N1CCC[C@H]1C(=O)N[C@@H](CCCN=C(N)N)C(=O)N[C@@H](CCCCN)C(=O)N[C@@H](CCC(N)=O)C(=O)O | 3.3 |
| CC(=S)NCCCC[C@H](NC(=O)CNC(=O)CNC(=O)[C@@H](NC(=O)[C@H](CO)NC(=O)[C@@H](N)CCCCN)[C@@H](C)O)C(=O)N[C@@H](C)C(=O)N1CCC[C@H]1C(=O)N[C@@H](CCCNC(=N)N)C(=O)N[C@@H](CCCCN)C(=O)N[C@@H](CCC(N)=O)C(=O)O | 3.3 |
| C[C@H](NC(=O)[C@H](CCCCNC(=O)CF)NC(=O)CNC(=O)CNC(=O)[C@@H](NC(=O)[C@H](CO)NC(=O)[C@@H](N)CCCCN)[C@@H](C)O)C(=O)N1CCC[C@H]1C(=O)N[C@@H](CCCNC(=N)N)C(=O)N[C@@H](CCCCN)C(=O)N[C@@H](CCC(N)=O)C(=O)O | 3.3 |
| C[C@H](NC(=O)[C@H](CCCCNC(=O)C(F)F)NC(=O)CNC(=O)CNC(=O)[C@@H](NC(=O)[C@H](CO)NC(=O)[C@@H](N)CCCCN)[C@@H](C)O)C(=O)N1CCC[C@H]1C(=O)N[C@@H](CCCN=C(N)N)C(=O)N[C@@H](CCCCN)C(=O)N[C@@H](CCC(N)=O)C(=O)O | 3.3 |

Continued by falling Kd, values first:

| Kd [µM] | SMILES |
| --- | --- |
| 16 | CCCC(=O)NCCCC[C@H](NC(=O)CNC(=O)CNC(=O)[C@@H](NC(=O)[C@H](CO)NC(=O)[C@@H](N)CCCCN)[C@@H](C)O)C(=O)N[C@@H](C)C(=O)N1CCC[C@H]1C(=O)N[C@@H](CCCN=C(N)N)C(=O)N[C@@H](CCCCN)C(=O)N[C@@H](CCC(N)=O)C(=O)O |
| 3.3 | CC(=N)NCCCC[C@H](NC(=O)CNC(=O)CNC(=O)[C@@H](NC(=O)[C@H](CO)NC(=O)[C@@H](N)CCCCN)[C@@H](C)O)C(=O)N[C@@H](C)C(=O)N1CCC[C@H]1C(=O)N[C@@H](CCCN=C(N)N)C(=O)N[C@@H](CCCCN)C(=O)N[C@@H](CCC(N)=O)C(=O)O |
| 3.3 | C[C@H](NC(=O)[C@H](CCCCNC(=O)CO)NC(=O)CNC(=O)CNC(=O)[C@@H](NC(=O)[C@H](CO)NC(=O)[C@@H](N)CCCCN)[C@@H](C)O)C(=O)N1CCC[C@H]1C(=O)N[C@@H](CCCNC(=N)N)C(=O)N[C@@H](CCCCN)C(=O)N[C@@H](CCC(N)=O)C(=O)O |
